Laboratory results published in the OPERA property sets (Mansouri et al. 2018).
Peptide text beside a SMILES is read from it.

## CCCc1cc(OC)c(CC(C)N)cc1OC (configuration not stated)
  logP: 3.37

## c1ccc(-c2ncc[nH]2)cc1
  logP: 1.88

## CNC(=O)Oc1ccc(C)c(C)c1
  logP: 2.09

## N#CNC(=N)N
  logP: -1.15

## Oc1c(Cl)cc(Cl)c(Cl)c1Cl
  logP: 4.45

## Oc1cc(Cl)cc(Cl)c1Cl
  logP: 3.84

## CN1CCc2cccc3c2[C@H]1Cc1ccc(O)c(O)c1-3
  logP: 2.3

## CCCCCCCOC(=O)C(C(=O)OCCCCCCC)=C1SCCS1
  logP: 7.6

## CCCCCCCN
  logP: 2.57

## CC(=O)N[C@H](C(=O)N[C@H](C(N)=O)C(C)C)C(C)C (Ac-Val-Val-NH2)
  logP: -0.32

## COCc1ccc(C(=O)O)cc1
  logP: 1.76

## NC(=O)[C@@H]1CCCN1C(=O)[C@H](Cc1cnc[nH]1)NC(=O)[C@@H]1CCC(=O)N1
  logP: -2.46

## C[C@@H](N)[C@@H](O)c1ccccc1
  logP: 0.67

## CC12CCC(O)CC1CCC1C2CCC2(C)C(C3=CC(=O)OC3)C(O)CC12O (configuration not stated)
  logP: 1.6

## Oc1ccc2cccc(O)c2c1
  logP: 1.94

## CSc1ccccc1
  logP: 2.74

## COC(=O)c1ccsc1
  logP: 1.76

## CCCCCOc1cc(N)ccc1C(=O)O
  logP: 2.38

## CCN(O)C(N)=O
  logP: -0.1

## c1ccc(Cn2nccn2)cc1
  logP: 1.56

## Nc1ccc(S(=O)(=O)Nc2cnc3ccccc3n2)cc1
  logP: 1.68

## CCCCCCC1CCC(=O)O1 (configuration not stated)
  logP: 2.72

## COc1ccc(C(c2ccc(OC)cc2)C(Cl)(Cl)Cl)cc1
  logP: 5.08

## Cc1ccc2[nH]ccc2c1
  logP: 2.68

## O=[N+]([O-])c1cnc2ccccc2c1
  logP: 1.97

## CCCCOc1cc(C(=O)NCCN(CC)CC)c2ccccc2n1
  logP: 4.4

## CSc1ncc2ccccc2n1
  logP: 2.5

## CCC(=O)Nc1ccnc2cc(Cl)ccc12
  logP: 2.73

## Oc1ccc(Sc2ccc(O)cc2)cc1
  logP: 3.34

## c1ccc(-c2cccnc2)nc1
  logP: 1.46

## CC=CC(C)=O
  logP: 0.52

## CCN(CC)CCNC(=O)c1cc([N+](=O)[O-])c(N)cc1OC
  logP: 2.11

## OCC1CC1c1ccccc1 (configuration not stated)
  logP: 1.95

## CCOC(=O)CCc1ccccc1
  logP: 2.73

## Cc1cccc(C(=O)O)c1O
  logP: 2.86

## O=[N+]([O-])c1ccc(CCO)cc1
  logP: 1.12

## N#Cc1cccc(N)c1
  logP: 1.07

## COc1ccc(C(C)c2ccc(OC)cc2)cc1
  logP: 4.52

## O=C(Cn1cnc([N+](=O)[O-])n1)NCCO
  logP: -1.59

## C[C@@H]1C[C@@]2(C)[C@@H](CC[C@@H]3[C@@H]2CC[C@]2(C)[C@@H](O)CC[C@@H]32)CC1=O
  logP: 3.99

## CC(=O)c1c[nH]c2ccccc12
  logP: 2.06

## CCN(CC)CCNC(=O)c1cc(S(=O)(=O)CC)c(N)cc1OC
  logP: 1.7

## COc1ccc(C(=O)OCCN(C)C)cc1
  logP: 2.21

## O=C(Nc1ccccc1)Nc1ccccc1
  logP: 3

## COc1cc2c(c(OC)c1OC)-c1ccc(OC)c(=O)cc1C(N)CC2 (configuration not stated)
  logP: 1.1

## CCCCOC(=O)c1ccc(S(N)(=O)=O)cc1
  logP: 2.34

## C#CC(C)OC(=O)Nc1ccc(OCC)c(OCC)c1 (configuration not stated)
  logP: 2.68

## CN(C)CCOC(=O)c1ccc(Cl)cc1
  logP: 2.63

## O=C(O)c1ccccc1Cl
  logP: 2.05

## COP(=S)(OC)SCn1nnc2ccccc2c1=O
  logP: 2.75

## CC(=O)NCC(=O)N[C@@H](CC(C)C)C(=O)NCC(N)=O (Ac-Gly-Leu-Gly-NH2)
  logP: -1.23

## CCC(C)C(NCc1ccccc1)C(=O)O (configuration not stated)
  logP: -0.27

## Fc1cccnc1
  logP: 0.77

## CN(C)c1ccc(NS(=O)(=O)c2ccc(N)cc2)cc1
  logP: 1.57

## COC(=O)[C@H]1[C@H]2C[C@H]3c4[nH]c5ccccc5c4CCN3C[C@H]2CC[C@@H]1O
  logP: 2.54

## COC1=CC(=O)C[C@@H](C)[C@]12Oc1c(Cl)c(OC)cc(OC)c1C2=O
  logP: 2.18

## CN(C)c1ccc(C(=C2C=CC(=[N+](C)C)C=C2)c2ccccc2)cc1.[Cl-]
  logP: 0.62

## CCC(C)N(C(=O)SCc1ccccc1)C(C)CC (configuration not stated)
  logP: 4.4

## CCCC(N)C(=O)O (configuration not stated)
  logP: -2.11

## C=C(C)C(=O)OCCO
  logP: 0.47

## Cc1cc2ccccc2[nH]1
  logP: 2.53

## COC(=O)c1cccc(S(I)=C(N(C)C)N(C)C)c1 (configuration not stated)
  logP: -0.75

## COP(=S)(NC(C)C)Oc1ccc(Cl)cc1Cl (configuration not stated)
  logP: 4.3

## O=[N+]([O-])c1ccncc1
  logP: 0.33

## CCCNC(=O)NO
  logP: -0.22

## CCOC(=O)CNC(=O)C=[N+]=[N-]
  logP: -0.08

## O=C(O)Cc1cccc(C(=O)O)c1
  logP: 1.14

## C[C@]12CC[C@H]3[C@@H](CCC4=CC(=O)CC[C@@]43C)[C@@H]1CC[C@@H]2C(=O)CO
  logP: 2.88

## Oc1c(O)c(Cl)c(Cl)c(Cl)c1Cl
  logP: 4.29

## CC(C)C[C@H](N)C(=O)O
  logP: -1.52

## Cc1n[nH]c(C(=O)N2CCCCCC2)c1[N+](=O)[O-]
  logP: 1.15

## O=C1CCCCCCCN1
  logP: 0.67

## CC(=O)CNc1ccccc1C(=O)O
  logP: 1.85

## Cc1cc(NC(N)=O)ccc1Br
  logP: 2.49

## C=C1C(=O)OC2CC(C)C3CC(=O)C(CC12)C1(C3)C(=O)OC2CC(C)C3C=CC(=O)C3C(C)(O)C21 (configuration not stated)
  logP: 1.66

## ClC1=C(Cl)C(Cl)(Cl)C(Cl)=C1Cl
  logP: 5.04

## O=[N+]([O-])c1ccccc1CO
  logP: 1.24

## CC(=O)Nc1ccccc1O
  logP: 0.72

## CCCC(C)(COC(N)=O)COC(N)=O
  logP: 0.7

## CCCCc1ccc(S(N)(=O)=O)cc1
  logP: 2.45

## CC(C)c1ccc(C(=O)O)cc1
  logP: 3.4

## CC1(C)C=Cc2ccccc2O1
  logP: 3.31
